Active and inactive are the calls of the source. How the calls were made is not given here.
Target: Peptidyl-prolyl cis-trans isomerase FKBP1A (Homo sapiens) (UniProt P62942)
Experiment: FKBP12 binders, biophysical, NMR detection (AID 608)
Settings: NMR binding, purified FKBP12

Peptidyl-prolyl cis-trans isomerase FKBP1A (Homo sapiens), sequence (P62942 whole entry, looked up): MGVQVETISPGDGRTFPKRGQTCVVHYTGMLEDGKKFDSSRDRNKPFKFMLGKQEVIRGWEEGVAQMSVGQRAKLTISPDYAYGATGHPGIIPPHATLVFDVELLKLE

SMILES | Kd
O=C1C2C3C=CC(C3)C2C(=O)N1c1cccnc1 (stereo not drawn) | > 4 mM (inactive)
COc1c2c(cc3c1OCO3)C13C=C[C@H](OC)CC1N(C2)CC3O (stereo partly drawn) | > 4 mM (inactive)
O=C1NC(=O)C(Cc2cccs2)C(=O)N1 | > 4 mM (inactive)
Cc1ccccc1N1C(=O)CC(=O)NC1=O | > 4 mM (inactive)
O=C(CC1Nc2ccccc2NC1=O)Nc1ccc(O)cc1 (stereo not drawn) | > 4 mM (inactive)
Cc1nnc(NC(=O)C(C)Sc2nncn2C)s1 (stereo not drawn) | > 4 mM (inactive)
CC(=O)NCC1(c2ccccc2)CCOCC1 | > 4 mM (inactive)
NC[C@H]1O[C@H](O[C@H]2[C@H](O)[C@@H](O[C@H]3O[C@H](CO)[C@@H](O)[C@H](N)[C@H]3O)[C@H](N)C[C@@H]2N)[C@H](N)[C@@H](O)[C@@H]1O | > 4 mM (inactive)
S=c1[nH]nc(-c2cccnc2)n1C1CCCCC1 | > 4 mM (inactive)
Nn1cnn2c(SCc3ccccc3)nnc12 | > 4 mM (inactive)
O=C(O)c1cccnc1 | > 4 mM (inactive)
Cc1nnc(N2CCc3ccccc3C2)[nH]c1=O | > 4 mM (inactive)
NN1C(=O)/C(=C/c2ccc(O)c(O)c2)SC1=S | > 4 mM (inactive)
Cc1occc1C(=O)Nc1sccc1C(N)=O | > 4 mM (inactive)
O=c1[nH]c(O)c(C=NCc2cccs2)c(=O)[nH]1 | > 4 mM (inactive)
COc1ccc2c(Cl)c(C(=O)N3CCOCC3)sc2c1 | inactive
CCOC(=O)Cc1nc2ccccc2[nH]1 | > 4 mM (inactive)
O=C(NN1C(=O)CSC1=S)c1ccccc1 | > 4 mM (inactive)
O=C(c1ccc(F)cc1)C1CCNCC1 | > 4 mM (inactive)
c1ccc(CCc2nc(-c3ccccn3)no2)cc1 | > 4 mM (inactive)
CC1(C)NC(=O)N(CCOc2ccc3c(c2)CCC3)C1=O | > 4 mM (inactive)
O=S(=O)(Nc1ccc(F)cc1)N1CCCCC1 | inactive
COc1c(OC)c2occc2c2oc(=O)ccc12 | > 4 mM (inactive)
O=C(O)c1cc(=O)[nH]c2ccccc12 | > 4 mM (inactive)

SMILES | Kd
CNC(=O)c1ccc([N+](=O)[O-])cc1Cl | > 4 mM (inactive)
COCc1nc(-c2cc(Br)ccc2OC)no1 | > 4 mM (inactive)
C#CCCCCCCCCCCCc1ccco1 | > 4 mM (inactive)
CN1CCN(CC(O)c2ccccc2)CC1 (stereo not drawn) | > 4 mM (inactive)
C=C(C)C1(O)OC(=O)C=C1OC (stereo not drawn) | > 4 mM (inactive)
O=C(O)CCC(=O)c1cccc2ccccc12 | > 4 mM (inactive)
O=C1C=CC2=C3c4cc(O)c(O)cc4C[C@@]3(O)COC2=C1 | > 4 mM (inactive)
NCc1ccc(CN2CCOCC2)cc1 | > 4 mM (inactive)
NCc1ccccc1N1CCCCC1 | > 4 mM (inactive)
CCCCN1C(=O)N(C)C2NC(=O)NC21 (stereo not drawn) | > 4 mM (inactive)
COc1ccc(C(=O)NNC(=S)NC(C)=O)cc1 | > 4 mM (inactive)
O=C1c2ccccc2C(=O)N1Cc1ccco1 | > 4 mM (inactive)
CC(=O)c1ccc(NC(=S)N2CCC(O)CC2)cc1 | > 4 mM (inactive)
CC(=O)Nc1ccncc1NC(C)=O | > 4 mM (inactive)
Nc1cccnc1Oc1ccc(F)cc1F | > 4 mM (inactive)
NCc1ccc(-n2cccn2)cc1 | > 4 mM (inactive)
CC(C)(C)CC(=O)N1CCC(C(N)=O)CC1 | > 4 mM (inactive)
N/N=C1\CCCc2c1no[n+]2[O-] | > 4 mM (inactive)
CCC(=O)NC(=S)Nc1ccc(C(N)=O)cc1 | > 4 mM (inactive)
O=C(NCc1cccs1)c1ccncc1 | > 4 mM (inactive)
Cc1ccc(SC(C)c2nc(-c3ccncc3)no2)cc1 (stereo not drawn) | inactive
O=S(=O)(Nc1ccc(Br)cc1)N1CCCCC1 | 0.669 mM
Cc1ccc(NS(=O)(=O)N2CCCCC2)c(C)c1 | 0.436 mM
CC(=O)Nc1c(C#N)c(C(C)(C)C)cn1C | > 4 mM (inactive)

SMILES | Kd
O=C1NC(=S)N/C1=C\c1ccccc1 | > 4 mM (inactive)
C=CCc1cc(C(=O)N2CCCCC2)ccc1O | > 4 mM (inactive)
COc1ccc2c(c1O)-c1c(OC)c(OC)cc3c1[C@H](C2)N(C)CC3 | > 4 mM (inactive)
CNS(=O)(=O)c1cccs1 | > 4 mM (inactive)
COc1ccc2nc(NC(=O)c3cnccn3)sc2c1 | > 4 mM (inactive)
CCNCC(O)c1ccc([N+](=O)[O-])cc1 (stereo not drawn) | > 4 mM (inactive)
O=C1C2C3CCC(O3)C2C(=O)N1c1cccc(F)c1 (stereo not drawn) | > 4 mM (inactive)
Cc1cc(C)nc(N(C#N)Cc2ccccc2)n1 | > 4 mM (inactive)
O=C(NCCCO)c1ccncc1 | > 4 mM (inactive)
COc1cccc(NC(=O)c2cccs2)c1 | 0.44 mM
CC(N)C(=O)c1ccco1 (stereo not drawn) | > 4 mM (inactive)
C=C1C([C@]2(C)C(CC(=O)OC)[C@@](C)(COC(C)=O)OC(=O)C[C@@H]2OC(C)=O)[C@@H](OC=O)[C@H](OC(=O)C(O)C(C)CC)[C@@]2(C)[C@H](c3ccoc3)CC(=O)C12O (stereo partly drawn) | > 4 mM (inactive)
CC(=O)Nc1cccc(Cn2cccn2)c1 | > 4 mM (inactive)
OC1COCc2nc3ccccc3n2C1 (stereo not drawn) | > 4 mM (inactive)
c1nnc2c3c4c(sc3ncn12)CCCC4 | > 4 mM (inactive)
O=C(Nc1ccc2c(c1)OCO2)c1cccc(F)c1 | > 4 mM (inactive)
CN1CCN(C(=O)c2ccco2)CC1 | > 4 mM (inactive)
COc1cc(OC)c2c(=O)c(-c3ccccc3)coc2c1 | > 4 mM (inactive)
FC(F)(F)c1nnc2ccc(N3CCOCC3)nn12 | > 4 mM (inactive)
O=C(NN=C1CCCC1)c1ccncc1 | > 4 mM (inactive)
CC(=O)Oc1c2c(c(CC=C(C)C)c3c1C(=O)C1=C[C@@H]4CC5C(C)(C)OC(C/C=C(\C)C(=O)O)(C4=O)[C@@]15O3)OC(C)(CCC=C(C)C)C=C2 (stereo partly drawn) | > 4 mM (inactive)
Cc1ccccc1NC(=O)c1ocnc1C | > 4 mM (inactive)
CC1CN(C(=O)CSc2ccccc2)CC(C)O1 (stereo not drawn) | inactive
O=C(O)CC12CC3CC(CC(O)(C3)C1)C2 | > 4 mM (inactive)

SMILES | Kd
CC1CCC2(OC1)OC1CC3C4CCC5C[C@@H](O)CCC5(C)C4=CCC3(C)C1[C@@H]2C (stereo partly drawn) | > 4 mM (inactive)
Cc1noc(-c2ccccc2)c1CO | > 4 mM (inactive)
CC(=O)O[C@H]1CC[C@]2(C)C3CC[C@@]4(C)C(CC5O[C@@]6(CCC(C)CO6)[C@@H](C)C54)C3CC[C@@H]2C1 (stereo partly drawn) | > 4 mM (inactive)
CC(C)=CC(=O)Nc1ccc(S(N)(=O)=O)cc1 | > 4 mM (inactive)
O=c1c2c(nc3nc(Cc4ccccc4)[nH]n13)CCC2 | > 4 mM (inactive)
O=c1c2ccccc2ncn1C1CCCCC1 | > 4 mM (inactive)
COC(=O)CC1=Nc2ccccc2NC(=O)C1 | > 4 mM (inactive)
O=c1[nH]cnc2c1nnn2Cc1ccccc1 | > 4 mM (inactive)
COc1ccccc1N1C(=N)SCC1=O | > 4 mM (inactive)
Cc1[nH]c2ccccc2c(=O)c1CO | > 4 mM (inactive)
CNC(=O)C1CCCN(S(C)(=O)=O)C1 (stereo not drawn) | > 4 mM (inactive)
Cn1c([O-])c([N+](C)(C)C)c(=O)n(C)c1=O | > 4 mM (inactive)
CN1CCN(C2CCSC2)CC1 (stereo not drawn) | > 4 mM (inactive)
COc1c(O)cc2c(-c3ccccc3)cc(=O)oc2c1OC | > 4 mM (inactive)
Cc1cc(NC(=O)NCCCSc2nncn2C)no1 | > 4 mM (inactive)
Cc1cc(=O)cc(C)n1NC(N)=S | > 4 mM (inactive)
c1ccc(-c2csc(Nc3cccnc3)n2)nc1 | > 4 mM (inactive)
CC(=O)Oc1cc2c(c(C)c1OC(C)=O)CC=C1[C@@]2(C)CC[C@@]2(C)C3C[C@](C)(C(=O)O)CC[C@]3(C)CC[C@]12C (stereo partly drawn) | > 4 mM (inactive)
NC(=O)C1CCCN1S(=O)(=O)c1ccc(F)cc1 (stereo not drawn) | > 4 mM (inactive)
Cc1cccc(N2CCN(C(=O)c3ccncc3)CC2)c1C | > 4 mM (inactive)
CCOC(=O)c1c(C)cc(O)c(C)c1O | > 4 mM (inactive)
OCc1cc(-c2cccs2)on1 | > 4 mM (inactive)
O=c1c2ccccc2oc2ccccc12 | > 4 mM (inactive)
CN(C)S(=O)(=O)c1cccc(N)c1 | > 4 mM (inactive)

SMILES | Kd
O=c1[nH]c(=S)c2c(n1-c1ccccc1)CCC2 | > 4 mM (inactive)
C=C(C)[C@H]1CC=C(C(=O)O)CC1 | > 4 mM (inactive)
CCOc1ccc(N2C(=O)CCC2=O)cc1 | > 4 mM (inactive)
OCc1ccc2c(c1)OCO2 | > 4 mM (inactive)
CSc1nc(-c2ccco2)nn1S(C)(=O)=O | > 4 mM (inactive)
CCCCn1c(=O)cc(O)c2ccccc21 | > 4 mM (inactive)
O=C(O)c1cccc2c1OCCCO2 | > 4 mM (inactive)
O=C1C2CC=CCC2C(=O)N1c1ccccc1 (stereo not drawn) | 0.0261 mM
O=C(O)Cn1cnc2ccccc2c1=O | > 4 mM (inactive)
COc1ccc(S(=O)(=O)NCCO)cc1 | > 4 mM (inactive)
Oc1ccc2c(c1)OCC1(O)Cc3cc(O)c(O)cc3C21 (stereo not drawn) | > 4 mM (inactive)
COc1ccc(-c2cc(=O)c3c(O)cc(O[C@H]4O[C@H](CO[C@@H]5O[C@@H](C)[C@H](O)[C@@H](O)[C@H]5O)[C@@H](O)[C@H](O)[C@H]4O)cc3o2)cc1 | > 4 mM (inactive)
COc1cc2nc[nH]c(=O)c2cc1OC | > 4 mM (inactive)
Cn1c(=O)n(CC(=O)N2CCOCC2)c2ccccc21 | > 4 mM (inactive)
CC(=O)c1cccc(NS(=O)(=O)N(C)C)c1 | > 4 mM (inactive)
CCN(CC)S(=O)(=O)c1ccc(F)cc1 | > 4 mM (inactive)
Oc1cc(O)cc(/C=C/c2ccccc2)c1 | > 4 mM (inactive)
COC(=O)C1COCCN1C(=O)C(F)(F)Sc1ccc(C(C)C)cc1 (stereo not drawn) | 0.19 mM
C=C1C2CC[C@@]3(C)[C@H](c4ccoc4)OC(=O)C[C@]13O[C@H]1C[C@H](OC(C)=O)C(C)(C)[C@H](CC(=O)OC)[C@@]21C | > 4 mM (inactive)
CC(=O)c1c(O)c(C)c(O)c2c1OC1=CC(=O)C(C(C)=O)C(=O)C12C (stereo not drawn) | > 4 mM (inactive)
Cc1nn(C)c2sc(C(=O)O)cc12 | > 4 mM (inactive)
Cc1cc(=O)[nH]c(NCC(=O)O)n1 | > 4 mM (inactive)

Reference: PubChem BioAssay AID608 (Sanford-Burnham Center for Chemical Genomics, 2007)
